Data as given in patent publication US10329284B2, “Ester prodrugs of gamma-lactams and their use” (ALLERGAN, INC., priority 2014, dated 2019).

Test: Aqueous stability upon storage in aqueous solution, evaluated by HPLC
Type: physicochemical
Description: The compound of Formula (IIIa):
[drawing 31] was selected as an exemplary compound for evaluation of aqueous stability. In particular, the aqueous stability of the compound of Formula (Ma) upon storage in aqueous solution at several temperatures for several weeks was evaluated by HPLC using the following conditions: Column: BioWidePore C18 (SUPELCO), 4.6 mm×25 cm, 5 μm Mobile Phase A: 0.1% (V/V) trifluoroacetic acid (TFA) in di-water, 0.8 micron filtered Mobile Phase B: 100% acetonitrile, 0.8 micron filtered Column temp: Ambient Injection volume: 30 μL UV Detection: 214 nm Flow: 1.0 mL/min Run time: 25 minutes Sample diluent: 50% acetonitrile in di-water Gradient condition: See Table 1

% Recovery vs. T0 (storage 25° C., T0)	% Recovery vs. T0 (storage 25° C., Week-1)	% Recovery vs. T0 (storage 25° C., Week-2)	% Recovery vs. T0 (storage 25° C., Week-4)	% Recovery vs. T0 (storage 40° C., T0)	% Recovery vs. T0 (storage 40° C., Week-1)	% Recovery vs. T0 (storage 40° C., Week-2)	% Recovery vs. T0 (storage 40° C., Week-4)	% Recovery vs. T0 (storage 60° C., T0)	% Recovery vs. T0 (storage 60° C., Week-1)	% Recovery vs. T0 (storage 60° C., Week-2)	% Recovery vs. T0 (storage 60° C., Week-4)	Compound
100.0%	100.8%	100.4%	102.6%	100.0%	100.6%	99.8%	101.8%	100.0%	99.0%	97.4%	96.3%	CCCCC[C@H](O)c1ccc(N2C(=O)CC[C@@H]2CCCc2ccc(C(=O)OC[C@@H](O)CO)s2)cc1 [Formula (IIIa), (S)-2,3-dihydroxypropyl 5-(3-((S)-1-(4-((S)-1-hydroxyhexyl)phenyl)-5-oxopyrrolidin-2-yl)propyl)thiophene-2-carboxylate]
100.0%	100.1%	101.0%	101.6%	100.0%	100.1%	100.1%	98.6%	100.0%	99.3%	97.5%	95.6%	O=C(OC[C@@H](O)CO)c1ccc(CCC[C@@H]2[C@@H](CCc3cc(Cl)cc(Cl)c3)[C@H](O)C[C@H]2Cl)s1 [Standard]
